The text below walks through data of patent US20040192641A1, “Special preparation of anticancer drugs made by novel nanotechnology” (priority 2003, published 2004).

One data set has as its system lymphocytes. Description: Lymphoblastic transformation, 3H-TdR liquid scintillation assay. As to conditions: 3H-TdR incorporation; PK and CY as in Example 4. Format: in vivo, mice. The protocol: By means of ^3H-TdR liquid scintillation assay technique, the action of PK on lymphoblastic transformation was investigated method:
(1) Experimental procedure of animal is the same as in Example 4.
(2) Lemphoblastic transformation test:
I. Reagents and Conditions for Cell Culture
a. Culture media—RPMI 1640, medium 199 minimal essential medium (Eagle).
b. Buffer—Hepes buffer, the final concentration at 37° C. was 25 mM, to maintain the pH of the medium at 7.31.
c. Serum—generally 15-205 fetal bovine serum was incorporated, for lymphocytes from mice, 5% was used.
d. Gaseous phase—5% CO2 in air.
e. Cell concentration—generally 1-2 c 10^6/ml.
f. Stimulants—20 μl/ml for phytohemagglutinin containing polysaccharide (PHA-M) or 10 μl/ml for polysaccharide-free purified phytohemagglutinin (PHA-P).
II. Measured by Liquid Scintillation
a. The conditions of cell culture are same as above. ^3H-TdR was added after 48 hours of incubation at a final concentration of 1 μCi/ml and continued the incubation for 24 hours.
b. Washed the cells twice with cold normal saline and the erythrocytes were lysed. The intact lymphocytes were again washed once with cold saline. Spun down the lymphocytes and added 2 ml of 10% trichloroacetic acid to precipitate the protein. Washed twice with normal saline. […]
c. Added 4 ml of scintillation fluid to 0.1 ml of the final sample and counted in a liquid scintillation counter. […]

The subject of data set [1] is stem cells of bone marrow. Put plainly: Hemopoietic system: CFU-S in mice treated with cyclophosphamide. As to conditions: mice treated with CY with or without PK. In kind it is in vivo. From the text: Effects of PK on hemopoietic system were investigated.
The next data set has as its system Interleukin-2 (rIL-2). Put plainly: Effect on Interleukin-2. Format: in vivo, mice. As to conditions: PK and CY as in Example 4. An excerpt: The method of determination rIL-2 was as same as Example 4.
A further data set relates to peritoneal macrophage. Description: Phagocytosis of peritoneal macrophage (chick red blood cells). Format: in vivo, mice. As to conditions: macrophages with phagocytized chick red blood cells per 100; PK 25 mg/kg i.p. daily 5 days, CY 4.5 mg/kg. The protocol:
(§1) Male mice weight 18-20 g were used in the experiments and were divided into treated (PK) and control groups. The dosage of PK was 25 mg/kg injected intraperitoneally. The control mice were injected with same volume of normal saline. These injections were repeated daily for 5 days, both treated and control group were injected intraperitoneally with CY. The dosage of CY is 4.5 mg/kg.
Added 0.02 ml of 5% washed chick red blood cell suspension to 0.5 ml of the peritoneal exudates. Shook gently to mix and incubate at 37° C. for 5 minutes. Dipped two cover slips, closed to each other, in the above mixture and incubated for 30 minutes for the migration of the macrophages along the cover slips, fixed and stained with Sharma stain. Examined microscopically for:
Phagocytic rate—number of macrophages with phagocytized chick red blood cells per 100 macrophages counted. Concentration of PK and CY is the same as Example 2. Pharmacological effects are as illustrated by the following table.

The test system of another data set is white blood cells. Put plainly: White blood cells assay. In kind it is in vivo, mice. As to conditions: time of treatment 10 days. The protocol:
as §1
Action of PK and CY on white blood cells was investigated by means of white blood cells assay. PK protected white blood cells and phagocytosis from the killing effect of CY. The dosage of PK and CY is the same as in Example 4. Time of treatment is 10 days.

Data set [2] can be described thus: Radiolabelled nanoparticle experiment: circulation of 3H-HHT in blood. Format: in vivo, mice. The protocol: Mice were used in this experiment. […]
After injection of radioactive ^3H-HHT or PK-^3H-HHT-NP, blood-associated radioactivity was determined.
1 ml of sample of blood was ultracentrifuged at 100,000×g for 1 hour. After discarding the supernatant, the sediment was dispersed again by mechanical stirring in 1.5 ml of distilled water. 100 μl of the sediment or supernatant were then added to 10 ml of scintillation liquid solution. After weighing, the radioactivity of the tissue samples was measured by a scintillation counter.

For the molecule `O=P1(N(CCCl)CCCl)NCCCO1` (centres unmarked) [CY, cyclophosphamide], the “CPM ± SD” value in the data set with lymphocytes came out at 600 ± 65 CPM. In data set [1], the “Mean (CFU-S ± SD)” value is reported as 7.6 ± 1.1. Moreover, the “IL-2 (U/ml)” value in the data set with Interleukin-2 (rIL-2) was 47.5 ± 5.5 U/ml. Also, the figures for the “Phagocytic (rate ± SD)” value in the data set with peritoneal macrophage and in the data set on white blood cells were 8.5 ± 0.90 and 6.0 ± 0.70, respectively.
On to `COC(=O)C[C@](O)(CCCC(C)(C)O)C(=O)O[C@@H]1C(OC)=C[C@]23CCCN2CCc2cc4c(cc2[C@H]13)OCO4` [^3H-HHT (free)], for which the “Circulation 3H-HHT in blood” value in data set [2] (1 hour after administration) was 2400 cpm; in data set [2] (8 hours after administration), 90 cpm; in data set [2] (24 hours after administration), 60 cpm.
